The supplement of paper PMC8617591

Legend:
[1] = system: Mycobacterium tuberculosis Erdman (autoluminescent); assay: Einf, fitted maximum growth inhibition (fraction); higher = stronger maximal inhibition
Method: (§1)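 DiaMOND dose responses (10 doses, 1.5- or 2-fold spacing, equipotent around IC90) of autoluminescent M. tuberculosis Erdman in 8 in vitro models. Read-out is OD600, or luminescence for the intracellular (J774) and dormancy models, background-subtracted and normalised to untreated wells. A 3-parameter Hill fit gives Einf and AUC25 (area to IC25 normalised by IC25); GRinf comes from a Hill fit of the Hafner normalised growth rate. Biological replicates passing QC are averaged. Single drugs only.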

[2] = system: Mycobacterium tuberculosis Erdman (autoluminescent); assay: AUC25, normalised area under dose response up to IC25 (fraction (0-1)); higher = more potent at low dose
Method: as §1

[3] = system: Mycobacterium tuberculosis Erdman (autoluminescent); assay: GRinf, maximum normalised growth rate inhibition (unitless (-1 to 1)); higher = less effect (negative = killing)
Method: as §1

[4] = system: Mycobacterium tuberculosis Erdman (autoluminescent); assay: FIC90 (Loewe) at 90% inhibition (log2); higher = more antagonistic
Method: (§2)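 DiaMOND equipotent two-drug combination dose responses against autoluminescent M. tuberculosis Erdman in 8 in vitro models. Read-out is OD600, or luminescence for the intracellular and dormancy models, normalised to untreated wells. Hill-fit Einf, AUC25 and GRinf are potency metrics; FIC50 and FIC90 are Loewe-additivity fractional inhibitory concentrations, given as log2 (negative = synergy). Replicates are averaged.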

[5] = system: Mycobacterium tuberculosis Erdman (autoluminescent); assay: FIC50 (Loewe) at 50% inhibition (log2); higher = more antagonistic
Method: as §2

[6] = system: Mycobacterium tuberculosis Erdman (autoluminescent); assay: Einf, fitted maximum growth inhibition of combination (fraction); higher = stronger maximal inhibition
Method: as §2

[7] = system: Mycobacterium tuberculosis Erdman (autoluminescent); assay: AUC25, normalised area under dose response up to IC25 (fraction (0-1)); higher = more potent at low dose; remark: listed apart in the source
Method: as §2

[8] = system: Mycobacterium tuberculosis Erdman (autoluminescent); assay: GRinf, maximum normalised growth rate inhibition (unitless (-1 to 1)); higher = less effect (negative = killing); remark: listed apart in the source
Method: as §2

CC[C@@H](CO)NCCN[C@@H](CC)CO [ethambutol]
Conditions	AUC25, [2]	Einf, [1]	GRinf, [3]
in vitro model: acidic pH 5.7, time point: constant (~7 days, model-specific)	0.103	0.785	-0.121
in vitro model: acidic pH 5.7, time point: terminal (~4-5 doublings, model-specific)	0.0746	0.963	-0.204
in vitro model: intracellular J774, time point: constant = terminal	–	0.977	-0.237

Conditions	AUC25, [2]	Einf, [1]	GRinf, [3]
in vitro model: butyrate, time point: constant (~7 days, model-specific)	0.0706	0.86	0.144
in vitro model: butyrate, time point: terminal (~4-5 doublings, model-specific)	0.0701	0.918	0.173
in vitro model: cholesterol 0.05 mM, time point: constant (~7 days, model-specific)	0.0906	0.621	0.0788
in vitro model: cholesterol 0.05 mM, time point: terminal (~4-5 doublings, model-specific)	0.0751	0.907	-0.193
in vitro model: cholesterol-high 0.2 mM, time point: constant (~7 days, model-specific)	0.0267	0.85	-0.161
in vitro model: cholesterol-high 0.2 mM, time point: terminal (~4-5 doublings, model-specific)	0.0346	1	-0.768
in vitro model: dormancy (butyrate + nitrate, low O2), time point: constant (~7 days, model-specific)	0.0829	0.777	0.544
in vitro model: dormancy (butyrate + nitrate, low O2), time point: terminal (~4-5 doublings, model-specific)	0.0685	0.914	0.295
in vitro model: standard 7H9 glycerol, time point: constant = terminal	0.0599	0.852	0.208
in vitro model: valerate, time point: constant (~7 days, model-specific)	0.0683	0.728	0.301
in vitro model: valerate, time point: terminal (~4-5 doublings, model-specific)	0.0665	0.832	0.297

CC(C)/N=c1\cc2n(-c3ccc(Cl)cc3)c3ccccc3nc-2cc1Nc1ccc(Cl)cc1 [clofazimine]
Conditions	AUC25, [2]	Einf, [1]	GRinf, [3]
in vitro model: acidic pH 5.7, time point: constant (~7 days, model-specific)	0.0949	0.748	0.0361
in vitro model: acidic pH 5.7, time point: terminal (~4-5 doublings, model-specific)	0.0888	0.966	-0.229
in vitro model: intracellular J774, time point: constant = terminal	–	0.997	-0.696

Conditions	AUC25, [2]	Einf, [1]	GRinf, [3]
in vitro model: butyrate, time point: constant (~7 days, model-specific)	0.0887	0.963	-0.0183
in vitro model: butyrate, time point: terminal (~4-5 doublings, model-specific)	0.0859	0.989	-0.0492
in vitro model: cholesterol 0.05 mM, time point: constant (~7 days, model-specific)	0.129	0.527	0.329
in vitro model: cholesterol 0.05 mM, time point: terminal (~4-5 doublings, model-specific)	0.13	0.844	0.0361
in vitro model: cholesterol-high 0.2 mM, time point: constant (~7 days, model-specific)	0.12	0.938	-0.473
in vitro model: cholesterol-high 0.2 mM, time point: terminal (~4-5 doublings, model-specific)	0.114	1	-0.945
in vitro model: dormancy (butyrate + nitrate, low O2), time point: constant (~7 days, model-specific)	0.115	0.876	0.339
in vitro model: dormancy (butyrate + nitrate, low O2), time point: terminal (~4-5 doublings, model-specific)	0.0838	0.922	-0.0947
in vitro model: standard 7H9 glycerol, time point: constant = terminal	0.113	0.965	-0.0492
in vitro model: valerate, time point: constant (~7 days, model-specific)	0.155	0.88	-0.412
in vitro model: valerate, time point: terminal (~4-5 doublings, model-specific)	0.0638	0.895	0.239

COc1c(N2C[C@@H]3CCCN[C@@H]3C2)c(F)cc2c(=O)c(C(=O)O)cn(C3CC3)c12 [moxifloxacin] + NC(=O)c1cnccn1 [pyrazinamide]
Conditions	AUC25, [7]	Einf, [6]	FIC50, [5]	FIC90, [4]	GRinf, [8]
in vitro model: acidic pH 5.7, time point: constant (~7 days, model-specific)	0.105	0.748	-1.4	–	-0.479
in vitro model: acidic pH 5.7, time point: terminal (~4-5 doublings, model-specific)	0.0766	0.958	0.112	-1.08	-0.337
in vitro model: intracellular J774, time point: constant = terminal	–	0.992	–	0.544	-0.418

Conditions	AUC25, [7]	Einf, [6]	FIC50, [5]	FIC90, [4]	GRinf, [8]
in vitro model: butyrate, time point: constant (~7 days, model-specific)	0.114	0.922	0.244	0.945	-0.0871
in vitro model: butyrate, time point: terminal (~4-5 doublings, model-specific)	0.076	0.967	0.181	0.416	0.0175
in vitro model: cholesterol 0.05 mM, time point: constant (~7 days, model-specific)	0.12	0.628	–	–	0.0508
in vitro model: cholesterol 0.05 mM, time point: terminal (~4-5 doublings, model-specific)	0.135	0.936	-0.139	1.9	-0.173
in vitro model: cholesterol-high 0.2 mM, time point: constant (~7 days, model-specific)	0.0967	0.93	0.32	–	-0.314
in vitro model: cholesterol-high 0.2 mM, time point: terminal (~4-5 doublings, model-specific)	0.0857	0.997	0.528	0.356	-0.695
in vitro model: dormancy (butyrate + nitrate, low O2), time point: constant (~7 days, model-specific)	0.0895	0.921	-0.473	-0.106	0.0154
in vitro model: dormancy (butyrate + nitrate, low O2), time point: terminal (~4-5 doublings, model-specific)	0.0636	0.983	-0.404	-0.148	-0.105
in vitro model: standard 7H9 glycerol, time point: constant = terminal	0.0774	0.974	–	–	-0.163
in vitro model: valerate, time point: constant (~7 days, model-specific)	0.0818	0.834	0.51	–	-0.121
in vitro model: valerate, time point: terminal (~4-5 doublings, model-specific)	0.0462	0.917	0.399	0.0879	0.0483

COc1nc2ccc(Br)cc2cc1[C@@H](c1ccccc1)[C@@](O)(CCN(C)C)c1cccc2ccccc12 [bedaquiline] + NNC(=O)c1ccncc1 [isoniazid]
Conditions	AUC25, [7]	Einf, [6]	FIC50, [5]	FIC90, [4]	GRinf, [8]
in vitro model: acidic pH 5.7, time point: constant (~7 days, model-specific)	0.107	0.873	0.428	–	-0.331
in vitro model: acidic pH 5.7, time point: terminal (~4-5 doublings, model-specific)	0.0934	0.984	0.351	0.404	-0.384
in vitro model: intracellular J774, time point: constant = terminal	–	0.98	–	0.531	-0.383

Conditions	AUC25, [7]	Einf, [6]	FIC50, [5]	FIC90, [4]	GRinf, [8]
in vitro model: butyrate, time point: constant (~7 days, model-specific)	0.0598	0.944	0.533	0.547	-0.0886
in vitro model: butyrate, time point: terminal (~4-5 doublings, model-specific)	0.0557	0.98	0.43	0.506	-0.111
in vitro model: cholesterol 0.05 mM, time point: constant (~7 days, model-specific)	0.102	0.729	0.373	–	-0.169
in vitro model: cholesterol 0.05 mM, time point: terminal (~4-5 doublings, model-specific)	0.0662	0.913	0.302	0.193	-0.202
in vitro model: cholesterol-high 0.2 mM, time point: constant (~7 days, model-specific)	0.0815	0.964	0.284	0.699	-0.49
in vitro model: cholesterol-high 0.2 mM, time point: terminal (~4-5 doublings, model-specific)	0.0507	0.996	0.335	0.25	-0.658
in vitro model: dormancy (butyrate + nitrate, low O2), time point: constant (~7 days, model-specific)	0.0656	0.92	0.646	0.194	0.179
in vitro model: dormancy (butyrate + nitrate, low O2), time point: terminal (~4-5 doublings, model-specific)	0.0512	0.983	0.0908	-0.202	-0.0876
in vitro model: standard 7H9 glycerol, time point: constant = terminal	0.0578	0.966	-0.0769	-0.0712	-0.124
in vitro model: valerate, time point: constant (~7 days, model-specific)	0.0996	0.946	0.561	0.24	-0.194
in vitro model: valerate, time point: terminal (~4-5 doublings, model-specific)	0.0554	0.971	0.661	0.741	-0.129
